Laboratory results taken from patent US20220333078A1, “Method for ex vivo expansion CD34+HSPCs into NK cells using an aryl hydrocarbon receptor antagonist” (Stichting Radboud universitair medisch centrum, priority 2015, published 2022).

What was measured:
HSPC-NK cells = test: Proliferation (CFSE dilution) and viability of HSPC-NK cells cultured 7 days with MPA or CsA; assay type: cell-based, human
Procedure: HSPC-NK cells were cultured according to our culture protocol for 35 days. After 35 days, NK cells were labeled with 1 μM CFSE as described previously. After staining, cells were resuspended in differentiation medium at a concentration of 2E+6/mL and plated in duplicate in a 96-well plate. […] After 7 days, cells were harvested. The number of viable target cells was quantified by FCM by gating on forward scatter and side scatter and exclusion of 7-AAD positive cells. Proliferation was analyzed by determining the CFSE dilution within CD56+ cells.

K562 cells = test: K562 killing and IFN-γ production by NK cells cultured in the presence of MPA or CsA; assay type: cell-based, human
Procedure: Cell lines were labeled with 1 μM carboxyfluorescein diacetate succinimidyl ester (CFSE; Molecular Probes Invitrogen, Eugene, Oreg., USA) and primary AML blasts were labeled with 1.5 μM CFSE, both in a concentration of 1E+7/mL for 10 minutes at 37° C. The reaction was terminated by adding an equal volume of FCS. After washing, cells were resuspended in IMDM/10% FCS to a final concentration of 3E+5/mL. Target cells (3E+4) were co-cultured in triplicate with effector cells at different effector:target (E:T) ratios in a total volume of 200 μL IMDM/10% FCS in 96-wells round-bottom plates (Corning Incorporated). Effector cells and target cells alone were plated out in triplicate as controls. […] Cells were harvested and the number of viable target cells was quantified by FCM by gating on forward scatter and side scatter and exclusion of 7-AAD positive cells. Target cell survival was calculated as follows: % survival=([absolute number of viable CFSE+ target cells co-cultured with NK cells]/[absolute number of viable CFSE+ target cells cultured in medium])×100%. The percentage specific lysis was calculated as follows: % lysis=(100−[% survival]), as described earlier by Jedema et al. Degranulation of NK cells during overnight co-culture was determined as the percentage of CD107a expressing cells measured by FCM. […]

AhR = test: qRT-PCR of AhRR and NK cell transcription factors in HSPC-NK cultures with or without SR1; assay type: cell-based, human
Procedure: Total RNA from 0.5-2E+5 cells, collected weekly from HSPC-NK cell cultures, was isolated using the Quick-RNA™ MicroPrep Kit (Zymo Research, CA, USA). Next, cDNA was synthesized using M-MLV-reverse transcriptase (Invitrogen) in a standard reaction as described before, after which real-time PCR was performed using the following Taqman Gene expression assays (Applied Biosystems, Forster City, Calif., USA): AhRR (Hs01005075_m1); TOX (Hs01055573_m1); ID2 (Hs04187239_m1); EOMES (Hs00172872_m1); GATA3 (Hs00231122_m1); SH2D1B (Hs01592483_m1); IFNG (Hs00989291_m1); GZMB (Hs01554355_m1); PRF1 (Hs99999108_m1). For all genes, Ct values were normalized to GAPDH (Hs02758991_g1) by calculating ΔCt=Cttarget gene−CtGAPDH per sample. Finally, gene expression levels were quantified relative to GAPDH as follows: 2^(−[ΔCt]).
After 5 weeks of culture, CD56+ cells were isolated from the total cultured cells. For this purpose cells were stained for 15 minutes at 4° C. using the appropriate concentration of anti-CD56-PEcy7 (CD56-PC7 (HCD56, Biolegend). Cells were washed and resuspended in FACS buffer at a concentration of 1.5E+6/mL, and subsequently sorted at the FACSAria Cell Sorter (BD Biosciences).

CD56+NK cells = test: FCM phenotype of CD56+NK cells after 35 days of culture; assay type: cell-based, human; details: generated in the presence vs absence of SR1
Procedure: (§1) Cell numbers and expression of cell-surface markers were determined by FCM. Anti-human CD45-ECD (J.33, Beckman Coulter, Woerden, The Netherlands) and anti-CD56-PC7 (HCD56, Biolegend, San Diego, Calif., USA) antibodies were used to follow cell number and NK cell differentiation during culture using the Coulter FC500 flow cytometer (Beckman Coulter). The population of viable CD45+ cells was determined by exclusion of 7-AAD (Sigma, St Louis, Mo., USA) positive cells. For phenotypical analysis, cells were incubated with antibodies in FCM buffer (PBS/0.5% bovine serum albumin (BSA; Sigma) for 30 minutes at 4° C. After washing, cells were resuspended in FCM buffer and analyzed. The following conjugated monoclonal antibodies were used for NK cell phenotyping: anti-NKG2A-PE (Z199; Beckman Coulter), anti-DNAM-1-FITC (DX 11; BD Biosciences Pharmingen, Breda, The Netherlands), anti-CD16-FITC (3G8), anti-CD3-FITC (UCHT1), anti-NKG2D-PE (1D11), anti-NKp30-PE (P30-15), anti-NKp44-PE (P44-8), anti-NKp46-PD (9E5), anti-CD158b-PE (Dx27), anti-CD158e-PE (Dx9), anti-CD158a/h-PE (HP-MA4), anti-CD62L-PE (DREG56), anti-CD253-PE (RIK-2), anti-CXCR3-PE (G025H7), anti-CXCR4-PE (12G5), anti-IgG1-PE (MOPC-21), anti-IgG2a-PE (MOPC-173), anti-IgG2b-PE (MCP-11), anti-IgG1-FITC (MOPC-21; all from Biolegend).

[1] = system: CD34+ cells enriched from UCB, BM and mobilized blood; test: SR1-based culture without heparin and low dose cytokines (UCB, BM and mobilized blood CD34+ cells); assay type: cell-based, human
Description: Representation of the new ex vivo SR1-based culture protocol used for the generation of NK cells. In the expansion step, CD34+ cells are expanded and differentiated into NK progenitors using SCF, Flt3L, IL-7, TPO and an aryl hydrocarbon antagonist, preferably SR1. Thereafter, NK progenitors are further differentiated using IL-15, IL-12 and/or IL-2.
In earlier studies, we exploited a phased based addition of cytokines in heparin-based basal media (5-7). Heparin is able to bind certain cytokines, reducing their degradation and perhaps presenting them in a more physiological manner. Furthermore, low dose cytokine cocktail containing G-CSF, GM-CSF and IL-6 was being used, which was based on studies using the fetal liver-derived stromal cell line AFT024 [59]. Since we observed that the AhR antagonist is a crucial component for the ex vivo expansion of NK cells from BM and mobilized blood CD34+HSPCs, we investigated whether we could simplify the culture method by leaving out heparine and low dose cytokines G-CSF, GM-SCF and IL-6 that have mainly an effect on myeloid progenitor cells (see FIG. 7).

[2] = system: G-CSF mobilized CD34+HSPCs; test: Ex vivo cytokine-based expansion and NK cell differentiation of G-CSF mobilized peripheral blood CD34+HSPCs with or without 2 μM SR1; design: species or system human
Procedure: (§2) Bone marrow samples were collected from healthy donors after written informed consent. Bone marrow-derived mononuclear cells (BM-MNCs) were isolated by Ficoll-hypaque (1.077 g/mL; GE Healthcare, Uppsala, Sweden) density gradient centrifugation. Peripheral blood-derived mononuclear cells (PB-MNCs) were obtained from aphaeresis material from stem cell donors who were treated with G-CSF (Neupogen®) 10 μg/kg/day subcutaneously for 5 to 6 days, after written informed consent. CD34+HSPCs were isolated using anti-CD34 immunomagnetic beads (Miltenyi Biotech, Bergisch Gladbach, Germany) according to manufacturer's instructions. CD34+HSPCs were directly used for NK cell generation.
CD34+HSPCs were plated into 24-well or 6-well tissue culture plates (Corning Incorporated, Corning, N.Y., USA). Cells were expanded during 9 or 10 days with a high-dose cytokine cocktail (Expansion cocktail I) consisting of 25 ng/mL IL-7 (Immunotools), 25 ng/mL SCF (Immunotools), 25 ng/mL TPO (Cellgenix) and 25 ng/mL Flt3L (Immunotools). From day 9 or 10 until day 14 or 15, TPO was replaced by 20 ng/mL IL-15 (Miltenyi). After day 14 or 15, cell differentiation was initiated by replacing Expansion cocktail I by a new high-dose cytokine cocktail (Differentiation cocktail) consisting of 20 ng/mL IL-7, 20 ng/mL SCF, 20 ng/mL IL-15 and 1000 U/mL IL-2 (Proleukin®; Chiron, München, Germany). Where mentioned, 2 μM StemRegenin1 (SR1; Cellagen Technology, San Diego, Calif., USA) was added to the culture medium (see FIG. 1A). Cells were cultured in Cellgro GMP DC medium (Cellgenix, Freiburg, Germany) supplemented with 10% human serum (HS; Sanquin Bloodbank, Nijmegen, The Netherlands) and a low dose cytokine cocktail consisting of […] G-CSF (Filgrastim, “Neupogen”—Amgen Corp. USA), 10 μg/mL GM-CSF and 50 μg/mL IL-6 (both Immunotools, Friesoythe, Germany). During the first 14 or 15 days of culture, low molecular weight heparin (Clivarin®; Abbott, Wiesbaden, Germany) was added to the medium in a final concentration of 20 μg/mL. Freshly isolated CD34+ cells were plated at a concentration of 1-4E+5/mL. After 3 days of culture, cells were transferred to a new plate in order to deplete for stromal cells. From day 14 or 15 onward, cell counts were kept above 2E+6 cells/mL. Cell cultures were refreshed with at least 30% new medium every 2 to 3 days. Cultures were maintained at 37° C., in 95% humidity, and 5% CO2. NK cells were used in experiments after 5 weeks of culture.
as §1

BM-derived CD34+HSPCs = test: Ex vivo cytokine-based expansion and NK cell differentiation of bone marrow-derived CD34+HSPCs with or without 2 μM SR1; design: species or system human
Procedure: as §2
CD34+HSPCs were plated into 24-well or 6-well tissue culture plates (Corning Incorporated, Corning, N.Y., USA). Cells were expanded during 9 or 10 days with a high-dose cytokine cocktail (Expansion cocktail I) consisting of 25 ng/mL IL-7 (Immunotools), 25 ng/mL SCF (Immunotools), 25 ng/mL TPO (Cellgenix) and 25 ng/mL Flt3L (Immunotools). […]
as §1, with “Anti-human CD45-ECD (J.33, Beckman Coulter, Woerden, The Netherlands) and anti-CD56-PC7 (HCD56, Biolegend, San Diego, Calif., USA) antibodies were used to follow cell number and NK cell differentiation during culture using the Coulter FC500 flow cytometer (Beckman Coulter).” left out

[3] = FACS-sorted CD56+NK cells after 5 weeks, SR1 vs no SR1

COc1c(C)c2c(c(O)c1C/C=C(\C)CCC(=O)O)C(=O)OC2 [MPA, mycophenolic acid]
proliferation of HSPC-NK cells (HSPC-NK cells; MPA 0.1 μg/ml): already inhibited
NK cell viability (HSPC-NK cells; MPA 0.1 to 10 μg/mL or CsA 0.01 to 1 μg/mL): induced dose-dependent cell death
NK cell-mediated killing of K562 cells (K562 cells; NK cells cultured with drug, overnight, E:T 1:1): impaired killing
IFN-γ production (K562 cells; NK cells incubated with drug, overnight co-culture with K562, E:T 1:1): impaired IFN-γ production

CC(C)n1cnc2c(NCCc3ccc(O)cc3)nc(-c3csc4ccccc34)nc21 [SR1, StemRegenin 1]
IFN-γ mRNA expression (AhR; FACS-sorted CD56+NK cells after 5 weeks, not exposed to target cells, SR1 vs no SR1): not increased
GATA-3 and EAT-2 expression (AhR; [3]): similar
GZMB and PERF expression (AhR; [3]): slightly higher, but not significantly increased
TOX, ID2 and EOMES expression (AhR; [3]): did not observe increased expression
AhRR expression relative to GAPDH (AhR; total cells, 2 μM SR1 vs no SR1): efficient down regulation
EOMES expression relative to GAPDH (AhR; total cells, SR1 vs no SR1): upregulated from week three onward
GATA-3 and EAT-2 (SH2D1B) expression relative to GAPDH (AhR; total cells, SR1 vs no SR1): increased in cells cultured in the presence of SR1
ID2 expression relative to GAPDH (AhR; total cells, SR1 vs no SR1): increased from day 14 onwards
TOX expression relative to GAPDH (AhR; total cells, from day 7 onward, SR1 vs no SR1): higher expression
presence of CD62L, CXCR3, DNAM-1 and TRAIL on CD56+ cells (CD56+NK cells): significantly higher
expansion of CD56+NK cells from CD34+ cells ([1]; 2 μM SR1 for 21 days, no heparin, G-CSF, GM-CSF, IL-6): promotes the expansion of CD56+NK cells
remaining non-NK cells, mainly CD14+ monocytic cells ([1]; SR1-based cultures without heparin and low dose cytokines): < 20%
Mean NK cell yield after 5 weeks of culture ([2]; G-CSF mobilized CD34+ cells, 2 μM SR1, range 115-904 fold, n=10): 235 fold
purity (NK cell differentiation, CD56+) ([2]; G-CSF mobilized CD34+HSPCs, with SR1, 5 weeks): 83%±9%
expansion of CD34+ cells ([2]; PB-derived HSPCs, addition of 2 μM SR1 vs no SR1): strongly enhanced expansion of CD34+ cells
amount of CD3+ T cells ([2]; SR1-based NK cell cultures): 0.1%±0.1%
average expansion of G-CSF-mobilized CD34+ cells ([2]; SR1-based protocol): 268 fold
frequency of CD34+ cells at the end of the culture process ([2]; SR1 cultures): 0.7%±0.4%
remaining non-NK cells: CD14+ and/or CD15+ mature monocytic and myelocytic cells ([2]; SR1 cultures, end of culture): 11%±6%
purity (NK cell differentiation, CD56+) (BM-derived CD34+HSPCs; BM-derived CD34+ cells, with SR1, 5 weeks): 84%±18%
Mean NK cell yield after 5 weeks of culture (BM-derived CD34+HSPCs; BM-derived CD34+HSPCs, 2 μM SR1, range 33-301, n=4): 129 fold
expansion of CD34+ cells (BM-derived CD34+HSPCs; BM-derived HSPCs, addition of 2 μM SR1 vs no SR1): strongly enhanced expansion of CD34+ cells
